Measurements: US20220324835A1 (Nurix Therapeutics, Inc., priority 2018, published 2022)

Assays:
Format in all cases: cell-based, human
T-cell [1] = experiment: IL-2 secretion from T-cells co-stimulated with anti-CD3 and anti-CD28 antibody (Biological Example 2); conditions: Homo sapiens, T-cell, fold change over baseline, primary human total T-cells, read-out: IL-2 secretion Anti-CD3/Anti-CD28 stimulation; for fold induction at 0.3 µM: 0.3 μM Cbl-b inhibitor; for fold induction at 1 µM: 1 μM Cbl-b inhibitor; for fold induction at 4 µM: 4 μM Cbl-b inhibitor
Summary of the method: (§1)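 Values are fold-change over baseline: readings (IL-2 release, CD25 staining) from inhibitor-treated T-cells divided against untreated cells […]. No detailed procedure stated.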

T-cell [2] = experiment: CD25 cell surface staining on T-cells co-stimulated with anti-CD3 and anti-CD28 antibody (Biological Example 2); conditions: Homo sapiens, T-cell, fold change over baseline, primary human total T-cells, read-out: CD25 staining Anti-CD3/Anti-CD28 stimulation; for fold induction at 0.3 µM: 0.3 μM Cbl-b inhibitor; for fold induction at 1 µM: 1 μM Cbl-b inhibitor; for fold induction at 4 µM: 4 μM Cbl-b inhibitor
Summary of the method: as §1

T-cell [3] = experiment: CD25 cell surface staining on T-cells stimulated with anti-CD3 antibody alone (Biological Example 2); conditions: T-cell, fold change over baseline, primary human total T-cells, read-out: CD25 staining Anti-CD3 stimulation; for fold induction at 1 µM: 1 μM Cbl-b inhibitor; for fold induction at 8 µM: 8 μM Cbl-b inhibitor

| Structure (SMILES) | fold induction at 0.3 µM (T-cell [1]) | fold induction at 1 µM (T-cell [1]) | fold induction at 4 µM (T-cell [1]) | fold induction at 0.3 µM (T-cell [2]) | fold induction at 1 µM (T-cell [2]) | fold induction at 4 µM (T-cell [2]) | fold induction at 1 µM (T-cell [3]) | fold induction at 8 µM (T-cell [3]) |
| --- | --- | --- | --- | --- | --- | --- | --- | --- |
| C[C@H](Sc1nncn1C)c1ccc(F)c(NC(=O)c2cccc(C(F)(F)F)n2)c1 [Compound 95a, (S)-N-(2-fluoro-5-(1-((4-methyl-4H-1,2,4-triazol-3-yl)thio)ethyl)phenyl)-6-(trifluoromethyl)picolinamide] | 1.01 to 2.5 | 1.01 to 2.5 | 2.51 to 5 | < 1 | 1.01 to 1.3 | 1.01 to 1.3 | < 0.6 | < 0.6 |
| C[C@H](Sc1nnc[nH]1)c1cccc(NC(=O)c2cc3ccccc3cn2)c1 [Compound 98, (S)-N-(3-(1-((4H-1,2,4-triazol-3-yl)thio)ethyl)phenyl)isoquinoline-3-carboxamide] | 1.01 to 2.5 | 1.01 to 2.5 | 1.01 to 2.5 | < 1 | < 1 | < 1 | < 0.6 | < 0.6 |
| Cc1cc(C(=O)Nc2cc([C@H](C)Sc3nncn3C)ccn2)nc(C(F)(F)F)c1 [Compound 103, (S)-4-methyl-N-(4-(1-((4-methyl-4H-1,2,4-triazol-3-yl)thio)ethyl)pyridin-2-yl)-6-(trifluoromethyl)picolinamide] | 1.01 to 2.5 | 1.01 to 2.5 | 1.01 to 2.5 | < 1 | < 1 | 1.01 to 1.3 | < 0.6 | 0.801 to 1 |
| C[C@H](Sc1nncn1C)c1ccnc(NC(=O)c2cc(C3CC3)cc(C(F)(F)F)n2)c1 [Compound 104, (S)-4-cyclopropyl-N-(4-(1-((4-methyl-4H-1,2,4-triazol-3-yl)thio)ethyl)pyridin-2-yl)-6-(trifluoromethyl)picolinamide] | 1.01 to 2.5 | 1.01 to 2.5 | 1.01 to 2.5 | < 1 | < 1 | 1.01 to 1.3 | 0.601 to 0.8 | 0.801 to 1 |
| C[C@H](Sc1nncn1C)c1ccnc(NC(=O)c2cc(Cl)cc(C(F)(F)F)n2)c1 [Compound 105, (S)-4-chloro-N-(4-(1-((4-methyl-4H-1,2,4-triazol-3-yl)thio)ethyl)pyridin-2-yl)-6-(trifluoromethyl)picolinamide] | 1.01 to 2.5 | 1.01 to 2.5 | < 1 | 1.01 to 1.3 | 1.01 to 1.3 | < 1 | < 0.6 | 0.601 to 0.8 |
| Cc1ccc(C(=O)Nc2cc([C@H](C)Sc3nncn3C)ccn2)nc1C1CC1 [Compound 113, (S)-6-cyclopropyl-5-methyl-N-(4-(1-((4-methyl-4H-1,2,4-triazol-3-yl)thio)ethyl)pyridin-2-yl)picolinamide] | 2.51 to 5 | 2.51 to 5 | 5 to 7.5 | < 1 | < 1 | 1.01 to 1.3 | < 0.6 | < 0.6 |
| C[C@H](Sc1nncn1C)c1ccnc(NC(=O)c2cc3c(C(F)(F)F)cccc3[nH]2)c1 [Compound 120, N-[4-[(1S)-1-[(4-methyl-1,2,4-triazol-3-yl)sulfanyl]ethyl]-2-pyridyl]-4-(trifluoromethyl)-1H-indole-2-carboxamide] | 1.01 to 2.5 | 1.01 to 2.5 | 1.01 to 2.5 | < 1 | < 1 | < 1 | < 0.6 | < 0.6 |
| Cc1nc2cc([C@H](C)Sc3nncn3C)cc(NC(=O)c3cccc(C(F)(F)F)n3)c2o1 [Compound 130a, (S)-N-(2-methyl-5-(1-((4-methyl-4H-1,2,4-triazol-3-yl)thio)ethyl)benzo[d]oxazol-7-yl)-6-(trifluoromethyl)picolinamide] | 2.51 to 5 | 5 to 7.5 | > 7.5 | 1.31 to 1.5 | 1.51 to 1.75 | > 1.76 | 0.601 to 0.8 | > 1 |
| C[C@H](Sc1nncn1C)c1cccc(NC(=O)c2cc(C(=O)N3CC(O)C3)ccn2)c1 [Compound 148, (S)-4-(3-hydroxyazetidine-1-carbonyl)-N-(3-(1-((4-methyl-4H-1,2,4-triazol-3-yl)thio)ethyl)phenyl)picolinamide] | < 1 | < 1 | < 1 | < 1 | < 1 | < 1 | < 0.6 | 0.601 to 0.8 |
| C[C@H](Sc1nncn1C)c1cccc(NC(=O)c2cc(C(=O)N3C[C@H](O)C[C@@H]3C)ccn2)c1 [Compound 151, 4-((2S,4R)-4-hydroxy-2-methylpyrrolidine-1-carbonyl)-N-(3-((S)-1-((4-methyl-4H-1,2,4-triazol-3-yl)thio)ethyl)phenyl)picolinamide] | > 7.5 | > 7.5 | > 7.5 | 1.01 to 1.3 | 1.01 to 1.3 | 1.01 to 1.3 | < 0.6 | 0.601 to 0.8 |
| C[C@H](Sc1nncn1C)c1cccc(N2Cc3c(cccc3C(F)(F)F)C2=O)c1 [Compound 166a, (S)-2-(3-(1-((4-methyl-4H-1,2,4-triazol-3-yl)thio)ethyl)phenyl)-4-(trifluoromethyl)isoindolin-1-one] | < 1 | < 1 | 1.01 to 2.5 | < 1 | 1.01 to 1.3 | 1.01 to 1.3 | 0.601 to 0.8 | 0.801 to 1 |
| C[C@H](Sc1nncn1C)c1cccc(N2Cc3c(ccnc3Cl)C2=O)c1 [Compound 167, 4-chloro-2-[3-[(1S)-1-[(4-methyl-1,2,4-triazol-3-yl)sulfanyl]ethyl]phenyl]-3H-pyrrolo[3,4-c]pyridin-1-one] | 1.01 to 2.5 | < 1 | 2.51 to 5 | 1.51 to 1.75 | 1.01 to 1.3 | > 1.76 | < 0.6 | 0.601 to 0.8 |
| CC(Sc1nncn1C)c1cc(F)cc(N2Cc3c(cccc3C(F)(F)F)C2=O)c1 [Compound 168, 2-[3-fluoro-5-[(1R)-1-[(4-methyl-1,2,4-triazol-3-yl)sulfanyl]ethyl]phenyl]-4-(trifluoromethyl)isoindolin-1-one] | 1.01 to 2.5 | 1.01 to 2.5 | 1.01 to 2.5 | < 1 | < 1 | 1.01 to 1.3 | 0.801 to 1 | 0.601 to 0.8 |
| C[C@H](Sc1nncn1C)c1cc(F)cc(N2Cc3c(cccc3C(F)(F)F)C2=O)c1 [Compound 168a, 2-[3-fluoro-5-[(1S)-1-[(4-methyl-1,2,4-triazol-3-yl)sulfanyl]ethyl]phenyl]-4-(trifluoromethyl)isoindolin-1-one] | < 1 | 1.01 to 2.5 | < 1 | 1.01 to 1.3 | 1.01 to 1.3 | 1.01 to 1.3 | < 0.6 | 0.801 to 1 |
| C[C@H](Sc1nncn1C)c1ccnc(N2Cc3c(cccc3C(F)(F)F)C2=O)c1 [Compound 172a, (S)-(4-(1-((4-methyl-4H-1,2,4-triazol-3-yl)thio)ethyl)pyridin-2-yl)-4-(trifluoromethyl)isoindolin-1-one] | 2.51 to 5 | 2.51 to 5 | 2.51 to 5 | < 1 | < 1 | < 1 | < 0.6 | < 0.6 |
| C[C@H](Cc1nncn1C)c1cccc(NC(=O)c2cccc(S(C)(=O)=O)n2)c1 [Compound 185, (R)-N-(3-(1-(4-methyl-4H-1,2,4-triazol-3-yl)propan-2-yl)phenyl)-6-(methylsulfonyl)picolinamide] | 1.01 to 2.5 | 1.01 to 2.5 | 2.51 to 5 | 1.01 to 1.3 | > 1.76 | > 1.76 | < 0.6 | < 0.6 |
| C[C@H](Cc1nncn1C)c1cccc(NC(=O)c2cc(C(C)(C)O)c(Cl)cn2)c1 [Compound 186, (R)-5-chloro-4-(2-hydroxypropan-2-yl)-N-(3-(1-(4-methyl-4H-1,2,4-triazol-3-yl)propan-2-yl)phenyl)picolinamide] | 2.51 to 5 | 1.01 to 2.5 | 5 to 7.5 | 1.01 to 1.3 | 1.31 to 1.5 | > 1.76 | < 0.6 | < 0.6 |
